These results are taken from ChEMBL document CHEMBL1158846, “Three new bistetrahydrofuran acetogenins from the seeds of Annona spinescens” (J Nat Prod, 1998).

The structures appear in SMILES notation. In brackets after ≈: the same amount, converted by molar mass.

The nature of data set [1]: Cytotoxicity against african green monkey Vero cells. Type of data set: cell-based. To be noted: chlorocebus sabaeus, read-out: ED50 (the source's name).
For data set [2], the system named is KB. Description: Cytotoxicity against human KB cells. Type of data set: functional.

As to `CCCCCCC(O)CCC[C@H](O)[C@@H]1CC[C@@H]([C@@H]2CC[C@H]([C@H](O)CCCCCCCCCCCCC3=C[C@H](C)OC3=O)O2)O1` (stereo not given in full) [CAROLIN A], the CC50 in data set [1] is 2 ng/mL (≈ 3.21 nM). The ED50 in data set [2] is listed as 1 ×10⁻⁷ ug/ml.

For `CCCCCC(O)CCCC[C@H](O)[C@@H]1CC[C@@H]([C@@H]2CC[C@H]([C@H](O)CCCCCCCCCCCCC3=C[C@H](C)OC3=O)O2)O1` (stereo not given in full) [CAROLIN B], the CC50 in data set [1] came to 3.7 ng/mL (≈ 5.94 nM). This compound also yielded an ED50 in data set [2] of 5 ×10⁻⁶ ug/ml.

Turning to `CCCCCCC(O)CCC[C@H](O)[C@@H]1CC[C@@H]([C@@H]2CC[C@H]([C@H](O)CCCCCCCCCCC3=C[C@H](C)OC3=O)O2)O1` (stereo not given in full) [CAROLIN C], the CC50 in data set [1] stood at 50 ng/mL (≈ 84.1 nM). The ED50 in data set [2] came out at 2 ×10⁻⁴ ug/ml.

As to `CCCCCC(O)C(O)CCC[C@H](O)[C@H]1CC[C@@H]([C@@H]2CC[C@@H]([C@@H](O)CCCCCCCCCCCCC3=C[C@H](C)OC3=O)O2)O1` (stereo not given in full) [SPINENCIN], the CC50 in data set [1] stood at 6 ng/mL (≈ 9.39 nM). For the same compound, the ED50 in data set [2] is recorded as 1 ×10⁻⁵ ug/ml.

Take `CCCCCC[C@H](O)CCC[C@H](O)[C@H]1CC[C@H]([C@H]2CC[C@H]([C@H](O)CCCCCCCCCCCCC3=C[C@H](C)OC3=O)O2)O1` [SQUAMOCIN]: in data set [1], the CC50 was determined as 10 ng/mL (≈ 16.1 nM). This compound also gave an ED50 in data set [2] of 4 ×10⁻⁴ ug/ml.
